This is an account of results in patent US20020183362A1, “2-Fluorobenzenesulfonyl compounds for the treatment of inflammation” (Pharmacia Corporation, priority 2000, published 2002).

Some results are limits rather than exact numbers.

Data set [1] has as its target T1, Human COX-1 (Homo sapiens, UniProt P23219).
T1 construct: A 2.0 kb fragment containing the coding region of either human or murine COX-1 or human or murine COX-2; made in house; host or cells: SF9 insect cells (baculovirus, transfer vector pVL1393)
Briefly: Assay for COX-1 and COX-2 activity (PGE2 ELISA, recombinant enzyme), COX-1. The format is biochemical. The following applies: Table I; pre-incubated 10-20 minutes, arachidonic acid 10 μM, stopped after ten minutes, pH 8.0. How it is done: (§1) Recombinant baculoviruses were isolated by transfecting 4 μg of baculovirus transfer vector DNA into SF9 insect cells (2×10^8) along with 200 ng of linearized baculovirus plasmid DNA by the calcium phosphate method. See M. D. Summers and G. E. Smith, A Manual of Methods for Baculovirus Vectors and Insect Cell Culture Procedures, Texas Agric. Exp. Station Bull. […] Recombinant viruses were purified by three rounds of plaque purification and high titer (10^7-10^8 pfu/mL) stocks of virus were prepared. For large scale production, SF9 insect cells were infected in 10 liter fermentors (0.5×10^6/mL) with the recombinant baculovirus stock such that the multiplicity of infection was 0.1. After 72 hours the cells were centrifuged and the cell pellet homogenized in Tris/Sucrose (50 mM: 25%, pH 8.0) containing 1% 3-[(3-cholamidopropyl)dimethylammonio]-1-propanesulfonate (CHAPS). The homogenate was centrifuged at 10,000×G for 30 minutes, and the resultant supernatant was stored at −80° C. before being assayed for COX activity.
COX activity was assayed as PGE2 formed/μg protein/time using an ELISA to detect the prostaglandin released. CHAPS-solubilized insect cell membranes containing the appropriate COX enzyme were incubated in a potassium phosphate buffer (50 mM, pH 8.0) containing epinephrine, phenol, and heme with the addition of arachidonic acid (10 μM). Compounds were pre-incubated with the enzyme for 10-20 minutes prior to the addition of arachidonic acid. […] The PGE2 formed was measured by standard ELISA technology (Cayman Chemical).
For orientation: In an ELISA, binding on a coated surface is turned into a signal by an enzyme label.

The target of data set [2] is T2, Human COX-2 (Homo sapiens, UniProt P35354).
T2 construct: A 2.0 kb fragment containing the coding region of either human or murine COX-1 or human or murine COX-2; made in house; host or cells: SF9 insect cells (baculovirus, transfer vector pVL1393)
T2 sequence (P35354 18-604): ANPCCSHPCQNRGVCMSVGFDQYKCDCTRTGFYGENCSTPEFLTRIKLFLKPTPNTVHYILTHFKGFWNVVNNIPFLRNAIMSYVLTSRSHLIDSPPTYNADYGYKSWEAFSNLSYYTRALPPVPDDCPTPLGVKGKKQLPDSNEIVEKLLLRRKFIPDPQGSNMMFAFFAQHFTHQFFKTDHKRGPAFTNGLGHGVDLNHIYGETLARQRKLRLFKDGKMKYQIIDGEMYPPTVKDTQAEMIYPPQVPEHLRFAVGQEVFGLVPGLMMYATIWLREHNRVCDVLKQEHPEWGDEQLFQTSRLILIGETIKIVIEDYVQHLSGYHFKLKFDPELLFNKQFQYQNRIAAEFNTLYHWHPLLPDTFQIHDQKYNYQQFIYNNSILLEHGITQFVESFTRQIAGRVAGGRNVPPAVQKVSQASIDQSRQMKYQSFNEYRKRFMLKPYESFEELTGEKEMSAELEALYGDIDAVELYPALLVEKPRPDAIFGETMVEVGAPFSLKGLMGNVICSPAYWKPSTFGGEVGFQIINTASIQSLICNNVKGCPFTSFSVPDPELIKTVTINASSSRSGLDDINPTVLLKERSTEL
Briefly: Assay for COX-1 and COX-2 activity (PGE2 ELISA, recombinant enzyme), COX-2. The format is biochemical. The conditions noted are these: Table I; pre-incubated 10-20 minutes, arachidonic acid 10 μM, stopped after ten minutes, pH 8.0. The protocol: The COX-2 inhibition activity of the compounds of this invention illustrated in the Examples was determined by the following methods.
(§2) Recombinant COX-1 and COX-2 were prepared as described by Gierse et al, [[…]., 305, 479-84 (1995)]. A 2.0 kb fragment containing the coding region of either human or murine COX-1 or human or murine COX-2 was cloned into a BamH1 site of the baculovirus transfer vector pVL1393 (Invitrogen) to generate the baculovirus transfer vectors for COX-1 and COX-2 in a manner similar to the method of D. R. O'Reilly et al (Baculovirus Expression Vectors: A Laboratory Manual (1992)). Recombinant baculoviruses were isolated by transfecting 4 μg of baculovirus transfer vector DNA into SF9 insect cells (2×10^8) along with 200 ng of linearized baculovirus plasmid DNA by the calcium phosphate method. See M. D. Summers and G. E. Smith, A Manual of Methods for Baculovirus Vectors and Insect Cell Culture Procedures, Texas Agric. Exp. Station Bull. 1555 (1987). Recombinant viruses were purified by three rounds of plaque purification and high titer (10^7-10^8 pfu/mL) stocks of virus were prepared. For large scale production, SF9 insect cells were infected in 10 liter fermentors (0.5×10^6/mL) with the recombinant baculovirus stock such that the multiplicity of infection was 0.1. After 72 hours the cells were centrifuged and the cell pellet homogenized in Tris/Sucrose (50 mM: 25%, pH 8.0) containing 1% 3-[(3-cholamidopropyl)dimethylammonio]-1-propanesulfonate (CHAPS). The homogenate was centrifuged at 10,000×G for 30 minutes, and the resultant supernatant was stored at −80° C. before being assayed for COX activity.
COX activity was assayed as PGE2 formed/μg protein/time using an ELISA to detect the prostaglandin released. CHAPS-solubilized insect cell membranes containing the appropriate COX enzyme were incubated in a potassium phosphate buffer (50 mM, pH 8.0) containing epinephrine, phenol, and heme with the addition of arachidonic acid (10 μM). Compounds were pre-incubated with the enzyme for 10-20 minutes prior to the addition of arachidonic acid. Any reaction between the arachidonic acid and the enzyme was stopped after ten minutes at 37° C./room temperature by transferring 40 μl of reaction mix into […] and 25 μM indomethacin. The PGE2 formed was measured by standard ELISA technology (Cayman Chemical).

The target of data set [3] is T1, Human COX-1. Briefly: Fast assay for COX-1 and COX-2 activity (PGE2 ELISA), COX-1. The format is biochemical. The following applies: Table II, pre-incubated 10 minutes at 25° C., arachidonic acid 10 μM, stopped after two minutes, pH 7.5. How it is done:
as §1
COX activity was assayed as PGE2 formed/μg protein/time using an ELISA to detect the prostaglandin released. CHAPS-solubilized insect cell membranes containing the appropriate COX enzyme were incubated in a potassium phosphate buffer (0.05 M Potassium phosphate, pH 7.5, 2 μM phenol, 1 μM heme, 300 μM epinephrine) with the addition of 20 μl of 100 μM arachidonic acid (10 μM). Compounds were pre-incubated with the enzyme for 10 minutes at 25° C. prior to the addition of arachidonic acid. […] The PGE2 formed was measured by standard ELISA technology (Cayman Chemical).

In data set [4] the target is T2, Human COX-2. Briefly: Fast assay for COX-1 and COX-2 activity (PGE2 ELISA), COX-2. The format is biochemical. The conditions noted are these: Table II, pre-incubated 10 minutes at 25° C., arachidonic acid 10 μM, stopped after two minutes, pH 7.5. The protocol: as §2
COX activity was assayed as PGE2 formed/μg protein/time using an ELISA to detect the prostaglandin released. CHAPS-solubilized insect cell membranes containing the appropriate COX enzyme were incubated in a potassium phosphate buffer (0.05 M Potassium phosphate, pH 7.5, 2 μM phenol, 1 μM heme, 300 μM epinephrine) with the addition of 20 μl of 100 μM arachidonic acid (10 μM). Compounds were pre-incubated with the enzyme for 10 minutes at 25° C. prior to the addition of arachidonic acid. Any reaction between the arachidonic acid and the enzyme was stopped after two minutes at 37° C./room temperature by transferring 40 μl of reaction mix into 160 μl ELISA buffer and 25 μM indomethacin. The PGE2 formed was measured by standard ELISA technology (Cayman Chemical).

As a reminder, the IC50 is the point on the concentration scale where inhibition reaches its midpoint. Broadly, the melting point is the temperature, or range, at which the solid turns liquid.

T1 sequence (P23219 24-599): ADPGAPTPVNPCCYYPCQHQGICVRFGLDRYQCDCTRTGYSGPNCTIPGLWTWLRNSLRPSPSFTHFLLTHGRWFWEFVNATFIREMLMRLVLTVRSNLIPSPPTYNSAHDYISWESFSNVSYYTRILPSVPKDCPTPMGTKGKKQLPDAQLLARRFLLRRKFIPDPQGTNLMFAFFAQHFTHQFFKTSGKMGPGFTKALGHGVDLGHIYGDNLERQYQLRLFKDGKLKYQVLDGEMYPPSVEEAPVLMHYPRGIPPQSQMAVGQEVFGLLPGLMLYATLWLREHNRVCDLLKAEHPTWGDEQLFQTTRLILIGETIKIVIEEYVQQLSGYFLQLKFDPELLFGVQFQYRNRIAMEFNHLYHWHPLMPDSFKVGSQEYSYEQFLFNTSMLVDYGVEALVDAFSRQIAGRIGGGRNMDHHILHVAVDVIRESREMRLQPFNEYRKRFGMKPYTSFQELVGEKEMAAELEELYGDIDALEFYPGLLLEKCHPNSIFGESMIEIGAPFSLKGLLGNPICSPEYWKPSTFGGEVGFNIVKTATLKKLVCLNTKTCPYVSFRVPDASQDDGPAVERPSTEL

Take `CS(=O)(=O)c1ccc(-c2cc(C(F)(F)F)nn2-c2ccc(C#N)cc2)cc1F` [Example 16, 4-[5-[3-Fluoro-4-(methylsulfonyl)Phenyl]-3-(trifluoromethyl)-1H-Pyrazol-1-yl]benzonitrile]: the melting point was in the range of 152 to 153 °C. The concentration for half-maximal inhibition (IC50) on Human COX-1 [1] was more than 100 µM. For the same compound, the IC50 at Human COX-2 [2] was found to be 0.25 µM. Moreover, the 50% inhibitory concentration (IC50) against Human COX-1 [3] was more than 100 µM. In addition, the IC50 on Human COX-2 [4] was 0.87 µM.
Turning to `Cc1cccc(-n2nc(C(F)(F)F)cc2-c2ccc(S(C)(=O)=O)c(F)c2)c1` [Example 17, 5-[3-Fluoro-4-(methylsulfonyl)phenyl]-1-(3-methylphenyl)-3-(trifluoromethyl)-1H-pyrazole], the melting point lay within 129 to 130 °C. In addition, the concentration for half-maximal inhibition (IC50) at Human COX-1 [1] is more than 100 µM. Further, the half-maximal inhibitory concentration (IC50) at Human COX-2 [2] was 1.05 µM. Also, it took 4.36 µM to reach half-maximal inhibition at Human COX-1 [3] (IC50). Moreover, on Human COX-2 [4], the IC50 was found to be 0.027 µM.
Compound `Cc1onc(-c2ccc(F)cc2)c1-c1ccc(S(N)(=O)=O)c(F)c1` [Example 22, 2-Fluoro-4-[3-(4-fluorophenyl)-5-methyl-4-isoxazolyl]-benzenesulfonamide] yielded a melting point of 176 to 177 °C. Further, the IC50 on Human COX-1 [1] was more than 100 µM. For the same compound, the IC50 on Human COX-2 [2] turned out to be 0.015 µM. The compound also had a half-inhibitory concentration (IC50) on Human COX-1 [3] of more than 100 µM. The compound further came in with an IC50 on Human COX-2 [4] of 0.005 µM.
For `CS(=O)(=O)c1ccc(C2=C(c3ccccc3)C(=O)OC2)cc1F` [Example 24], the melting point lay within 161 to 162 °C. Also, the IC50 at Human COX-1 [1] was more than 100 µM. Moreover, at Human COX-2 [2], the IC50 came out at 15.9 µM. This compound also returned an IC50 against Human COX-1 [3] of more than 100 µM. For the same compound, on Human COX-2 [4], half-maximal inhibition (IC50) was put at 3.73 µM.
